Test results taken from ChEMBL document CHEMBL5096191 (J Med Chem, 2021).

Key:
Format in all cases: functional, cell-based
[1] = tested on: Cannabinoid receptor 2 (Homo sapiens), P34972 [V113M]; assay: Partial agonist activity at CBR2 V1133.32M mutant (unknown origin) expressed in HEK293T assessed as increase in picometer shifts of reflected light wavelengths in presence of cannabidiol by DMR assay relative to control; details: filed as partial agonist
Cannabinoid receptor 2 [2] = target: Cannabinoid receptor 2 (Homo sapiens, UniProt P34972, S285L); assay: Partial agonist activity at CBR2 S2857.39L mutant (unknown origin) stably expressed in HEK293T assessed as decrease in forskolin induced cAMP level preincubated for 15 mins followed by forskolin addition incubated for 15 mins in presence of cannabidiol by HTRF assay
Cannabinoid receptor 2 (Homo sapiens, UniProt P34972, S285L), sequence (P34972 whole entry S285L): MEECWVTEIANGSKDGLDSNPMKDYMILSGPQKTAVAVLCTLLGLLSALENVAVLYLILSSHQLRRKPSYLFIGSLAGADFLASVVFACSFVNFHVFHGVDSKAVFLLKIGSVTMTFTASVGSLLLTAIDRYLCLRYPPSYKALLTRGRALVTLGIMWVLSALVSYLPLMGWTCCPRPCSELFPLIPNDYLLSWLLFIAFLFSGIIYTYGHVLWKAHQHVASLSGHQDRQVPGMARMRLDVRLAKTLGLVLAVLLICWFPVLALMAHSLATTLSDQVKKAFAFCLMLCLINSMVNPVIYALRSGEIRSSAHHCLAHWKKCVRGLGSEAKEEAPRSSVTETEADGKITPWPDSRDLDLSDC

[3] = tested on: Cannabinoid receptor 2 (Homo sapiens), P34972 [V36M]; assay: Partial agonist activity at CBR2 V361.35M mutant (unknown origin) stably expressed in HEK293T assessed as decrease in forskolin induced cAMP level preincubated for 15 mins followed by forskolin addition incubated for 15 mins in presence of cannabidiol by HTRF assay relative to control; details: filed as partial agonist, time 30.0 min
Cannabinoid receptor 2 (Homo sapiens), P34972 [V36M], sequence (P34972 whole entry V36M): as the sequence (P34972 whole entry S285L) above, with V36M, L285S counted along it

Cannabinoid receptor 2 [4] = target: Cannabinoid receptor 2 (Homo sapiens, UniProt P34972); assay: Positive allosteric modulation of JWH-133-induced agonist activity at wild type CB2 receptor (unknown origin) stably expressed in HEK293T cells assessed as inhibition of forskolin-stimulated cAMP levels preincubated for 15 mins followed by forskolin addition incubated for 15 mins by HTRF assay
Cannabinoid receptor 2 (Homo sapiens, UniProt P34972), sequence (P34972 whole entry): as the sequence (P34972 whole entry S285L) above, with L285S counted along it

[5] = tested on: Cannabinoid receptor 2 (Homo sapiens), P34972 [A282M]; assay: Partial agonist activity at CBR2 A2827.36M mutant (unknown origin) stably expressed in HEK293T assessed as decrease in forskolin induced cAMP level preincubated for 15 mins followed by forskolin addition incubated for 15 mins by HTRF assay relative to control; details: filed as partial agonist, time 30.0 min
Cannabinoid receptor 2 (Homo sapiens), P34972 [A282M], sequence (P34972 whole entry A282M): as the sequence (P34972 whole entry S285L) above, with A282M, L285S counted along it

Cannabinoid receptor 2 (Homo sapiens), P34972 [V113M], sequence (P34972 whole entry V113M): as the sequence (P34972 whole entry S285L) above, with V113M, L285S counted along it

Work on CCCC(C)(C)c1cc(O)c2c(c1)OC(C)(C)[C@@H]1CC=C(C)C[C@@H]21 yielded an Emax [1] of 71.9%, an EC50 (Cannabinoid receptor 2 [2]) of 39.8 nM and an Emax [3] of 53%. The EC50 (Cannabinoid receptor 2 [4]) was 25.1 nM and the Emax [5] was 45.4%.
